# In patent publication US4006164A, “4-Aryl-1,2,3,4-tetrahydropyrrolo[3,4-b]indoles” (Pfizer Inc., priority 1975, dated 1977):
# Like-named read-outs stand apart in the source and are kept apart here.
# Tested on: amphetamine-induced symptoms
# Test: antagonism of amphetamine-induced symptoms in rats (blocking of amphetamine behavior of cage movement)
# Format: in vivo
# Settings: Rattus norvegicus, ip
# Text: The tranquilizing agents of the present invention are characterized by relief of such schizophrenic manifestations in humans as hallucinations, hostility, suspiciousness, emotional and social withdrawal, anxiety, agitation and tension. Standard procedures of detecting and comparing tranquilizing activity of compounds in this series and for which there is an excellent correlation with human efficacy is the antagonism of amphetamine-induced symptoms in rats test as taught by A. Weissman, et al., J. Pharmacol. Exp. Ther., 151, 339 (1966) and by Quinton, et al., Nature, 200, 178 (1963).
# The effects of the compounds of the present invention on prominent amphetamine-induced symptoms were studied in rats by a rating scale modeled after the one reported by Quinton and Halliwell; and Weissman. Groups of five rats were placed in a covered plastic cage measuring approximately 26 cm. × 42 cm. × 16 cm. After a brief period of acclimation in the cage, the rats in each group were treated intraperitoneally (i.p.) with the test compound. […] On the basis of dose-response data after amphetamine it was possible to determine the effective dose of the compound necessary to antagonize or block the characteristic amphetamine behavior of cage movement for fifty percent of the rats tested (ED50). The time of rating chosen coincides with the peak action of amphetamine which is 60-80 min. after treatment with this agent.
# Employing the above-described procedure, the following compounds were tested for their ability to block the behavior effects to amphetamine, the results being reported as the ED50 in mg./kg. at the indicated times: […]
# [1] = test compound i.p., d-amphetamine sulfate 5 mg./kg. i.p. 1 hr. later, rated one hour after amphetamine, read-out: ED50, 1 hr.
# [2] = test compound i.p., d-amphetamine sulfate 5 mg./kg. i.p. 5 hrs. later, rated one hour after amphetamine, read-out: ED50, 5 hrs.
smiles,measurement,setting,value
OC(CCCN1Cc2c(n(-c3ccc(F)cc3)c3ccc(F)cc23)C1)c1ccc(F)cc1 (centres unmarked),ED50,[1],1 to 3.2 mg/kg
same,ED50,[2],1 to 3.2 mg/kg
"CN(C)CCCN1c2ccccc2Sc2ccc(Cl)cc21 [chlorpromazine, reference compound]",ED50,"1 h, read-out: ED50, 1 hr.",> 10 mg/kg
"CN1Cc2c(n(-c3ccc(F)cc3)c3ccc(F)cc23)C1 [X = F, Z = F, R = CH3, 7-Fluoro-4-(p-fluorophenyl)-2-methyl-1,2,3,4-tetrahydropyrrolo[3,4-b]indole]",ED50,[1],3.2 to 5.6 mg/kg
same,ED50,[2],> 10 mg/kg
